The results in this text go back to patent US20260364124A1, “ANTI-C. DIFFICILE SMALL MOLECULE METABOLITES FROM DIET AND GUT MICROBIOME” (The Children's Medical Center Corporation, priority 2023, published 2026).

“Also recorded” adds a separate entry of the source.

The test system of experiment [1] is C. difficile. As to the kind of experiment: C. difficile infection (CDI) mouse model, C. difficile burden (CFU). The class given is in vivo, mouse (C57BL/6J) infected with Clostridioides difficile. Conditions: infected mice; for anti-microbial effect on C. difficile in vivo: 500 μM in drinking water, CFU at day one and day two (FIG. 3C); for C. difficile burden in vivo: pure compound administered (FIGS. 6A-6B). The protocol:
(§1) FIG. 3B provides a heatmap of growth of 20 Clostridioides difficile isolates in the absence of presence of the polyphenolic glycoside polydatin or the Bacteroides liberated aglycone resveratrol. […] Growth induction or inhibition is measured as the ratio of growth in media (AUC) supplemented with glucose and 150 μM polydatin or resveratrol versus growth in media (AUC) supplemented with glucose and vehicle. Value>1 is representative of enhanced growth in compound and value <1 is representative of inhibition of growth in compound.
C. difficile infection (CDI) model: An antibiotic-treatment-induced CDI mouse model developed previously was used for the infection model. Briefly, six-to eight-week-old male and female SPF C57BL/6J WT mice were treated for three days with a mixture of antibiotics including vancomycin (0.4 mg/mL, Sigma) colistin (850 U/mL, Sigma), metronidazole (0.215 mg/mL, Sigma), gentamicin (0.035 mg/mL, RPI), and kanamycin (0.045 mg/mL, Sigma) in their drinking water. Mice were then treated with regular water for two days and then injected intraperitoneal (IP) with clindamycin (10 mg/kg, Mylan Pharmaceuticals) in normal saline. After one day, mice were gavaged with […] of C. difficile M7404 diluted in PBS. Stool was collected from mice at one day and two days post infection, and immediately taken for assessment of C. difficile infection load.
C. difficile colony-forming units (CFUs): Mouse feces were collected from mice on day one and day two of C. difficile infection. Feces were weighed and resuspended to 50 mg/mL in pre-reduced 1× PBS. CFUs were enumerated by plating multiple dilutions on pre-reduced commercial ChromID C. difficile -selective plates (Biomerieux) after incubation for 24 hours at 37 °C in an anaerobic chamber (Coy Labs).

The test system of experiment [2] is C. difficile. As to the kind of experiment: Phytochemical microbial killing assay, panel of gut bacterial pathogens. Type of experiment: cell-based, Clostridioides difficile. The conditions noted are these: 150 μM, media with glucose, growth ratio (AUC) vs vehicle, panel of gut bacterial pathogens (FIG. 3A). The protocol:
Growth is measured as the ratio of growth in media (AUC) supplemented with glucose and 150 μM glycoside or aglycone versus growth in media (AUC) supplemented with glucose and vehicle. Value>1 is representative of enhanced growth in compound and value<1 is representative of inhibition of growth in compound.
Phytochemical microbial killing assays: All gut pathogen isolates were grown on brain-heart-infusion supplemented with hemin (50 mg/L) and vitamin K1 (0.25 mg/L) (BHIS) agar plates or in basal media (BSG; proteose peptone (20 g/L), yeast (5 g/L), NaCl (5 g/L), glucose (5 g/L), potassium phosphate dibasic (5 g/L), cysteine (0.5 g/L), hemin (50 mg/L), and vitamin K1 (0.25 mg/L). Isolates were recovered on and grown in pre-reduced media in a Coy anaerobic chamber (Coy Labs). To determine the fitness effects of phloridzin hydrate (TCI), phloretin (TCI), polydatin (TCI), and resveratrol (TCI) on enteric pathogen fitness, each pathogen isolate was recovered on a BHIS agar plate and incubated anaerobically at 37 °C for 48 h. A starter culture (1 mL) of BSG was inoculated with C. difficile and grown for 15 h. […] Bacterial growth was monitored by measuring the optical density at 600 nm (OD600) of each culture in a 384 well plate with an Epoch2 spectrophotometer (BioTek Instruments) and MicroPlate stacker (Agilent BioTek) for 24 hours.

Another experiment has as its system B. uniformis. As to the kind of experiment: In vitro aglycone liberation by wildtype B. uniformis (LC-MS). Also noted: species or system Bacteroides uniformis ATCC 8492. Conditions: role: product; B. uniformis culture supplemented with glycoside, after eight hours, LC-MS EIC (FIG. 2). An excerpt: Comparative LC-MS EICs (Extracted Ion Chromatogram) of methanol-water extracts of bacterial cultures supplemented with each polyphenolic glycoside after eight hours are provided. The trace labeled “A” corresponds to the EIC of each glycoside, and the trace labeled “B” corresponds to the EIC of each aglycone. The portion of the trace “B” peak overlapping the trace “A” peak corresponds to the aglycone detected from fragmentation of the glycoside at the ionization source and is a technical artifact.
FIGS. 5A and 5B show microbiome-mediated polyphenol aglycone liberation. […] Step 2: Spent media was filter-sterilized. Step 3: C. difficile was grown in spent media from either vehicle or polydatin (top).
In vitro aglycone liberation: All B. uniformis strains were grown on brain-heart-infusion supplemented with hemin (50 mg/L) and vitamin K1 (0.25 mg/L) (BHIS) agar plates or in basal media (BSG; proteose peptone (20 g/L), yeast (5 g/L), NaCl (5 g/L), glucose (5 g/L), potassium phosphate dibasic (5 g/L), cysteine (0.5 g/L), hemin (50 mg/L), and vitamin K1 (0.25 mg/L). All isolates were recovered on and grown in pre-reduced media in a Coy anaerobic chamber (Coy Labs).
To assess the capacity of Bacteroides to liberate aglycones from their parent polyphenolic glycosides, B. uniformis ATCC 8492 WT and AgshD were recovered on a BHIS agar plate and incubated anaerobically at 37 °C for 48 h. A starter culture (1 mL) of BSG was inoculated with each isolate and grown for 15 h. This starter culture was then used to inoculate a BSG sub-culture (1 mL) at a final dilution of 1:10. […]
For polyphenolic glycoside and aglycone-containing samples, samples were dried under nitrogen flow and resuspended in 50 μl of methanol 50% in water. […] Samples were quantified on a QEplus mass spectrometer coupled to an Ultimate 3000 LC (Thermo fisher). […] Quantification was performed using Tracefinder (Thermo fisher), using the ratio of the area under the peak for each compound and of the internal standard, using the accurate mass of the [M−H]^− ions.

Another experiment concerns C. difficile isolates. As to the kind of experiment: Phytochemical microbial killing assay, diverse C. difficile isolates. The class given is cell-based, Clostridioides difficile. Here is the method: as §1
Bacterial isolates were grown in vitro in media plus compound. Killing was measured by bacterial culture optical density (proxy for amount of bacteria in a culture).
Phytochemical microbial killing assays: All gut pathogen isolates were grown on brain-heart-infusion supplemented with hemin (50 mg/L) and vitamin K1 (0.25 mg/L) (BHIS) agar plates or in basal media (BSG; proteose peptone (20 g/L), yeast (5 g/L), NaCl (5 g/L), glucose (5 g/L), potassium phosphate dibasic (5 g/L), cysteine (0.5 g/L), hemin (50 mg/L), and vitamin K1 (0.25 mg/L). Isolates were recovered on and grown in pre-reduced media in a Coy anaerobic chamber (Coy Labs). To determine the fitness effects of phloridzin hydrate (TCI), phloretin (TCI), polydatin (TCI), and resveratrol (TCI) on enteric pathogen fitness, each pathogen isolate was recovered on a BHIS agar plate and incubated anaerobically at 37 °C for 48 h. A starter culture (1 mL) of BSG was inoculated with C. difficile and grown for 15 h. This starter culture was then used to inoculate a BSG sub-culture (1 mL) at a final dilution of 1:10. This sub-culture was grown for 3 h to an OD600~0.5 before being used to inoculate experimental cultures at a final dilution of 1:50. The experimental media consisted of a modified YCFA media (mYCFA; casitone (2.5 g/L), yeast extract (0.625 g/L), cysteine (0.5 g/L), magnesium sulfate heptahydrate (f.c. 365 μM), calcium chloride dihydrate (f.c. 610 μM), sodium bicarbonate (4 g/L), dipotassium phosphate (0.45 g/L), monopotassium phosphate (0.45 g/L), sodium chloride (0.9 g/L), sodium acetate (2.71 g/L), Hemin (50 mg/L), Vitamin K1 (0.25 mg/L), ferrous sulfate (4 μg/mL), ATCC vitamin mix (1% v/v)) supplemented with glucose (15 mM, Sigma) plus each compound (150 μM) or glucose (15 mM, Sigma) plus DMSO (0.15%, Sigma). Bacterial growth was monitored by measuring the optical density at 600 nm (OD600) of each culture in a 384 well plate with an Epoch2 spectrophotometer (BioTek Instruments) and MicroPlate stacker (Agilent BioTek) for 24 hours.

`O=C(CCc1ccc(O)cc1)c1c(O)cc(O)cc1O` [phloretin]: in the experiment with C. difficile [1], the “anti-microbial effect on C. difficile in vivo” value is reported as “potent anti-microbial effects on C. difficile in vivo” and the “C. difficile burden in vivo” value is listed as “decreases C. difficile burden”. In addition, the “selective killing of C. difficile” value with C. difficile [2] is “selectively kill the enteric pathogen C. difficile; also recorded: selectively kill hypervirulent C. difficile”. Besides, the “liberation of aglycone from polyphenolic glycoside” value in the experiment on B. uniformis was “liberates phloretin and resveratrol from their natural prodrugs in vitro”.
Consider `Oc1ccc(C=Cc2cc(O)cc(O)c2)cc1` [resveratrol], for which, in the experiment on C. difficile [1], the “anti-microbial effect on C. difficile in vivo” value was “potent anti-microbial effects on C. difficile in vivo” and the “C. difficile burden in vivo” value is recorded as “decreases C. difficile burden”. For the same compound, in the experiment on C. difficile [2], the “selective killing of C. difficile” value is recorded as “selectively kill the enteric pathogen C. difficile; also recorded: selectively kill hypervirulent C. difficile”. The “liberation of aglycone from polyphenolic glycoside” value with B. uniformis is “liberates phloretin and resveratrol from their natural prodrugs in vitro”. For the same compound, the “growth inhibition of Clostridioides difficile” value in the experiment with C. difficile isolates (150 μM, 20 C. difficile isolates, growth ratio (AUC) vs vehicle (FIG. 3B)) is “showed growth inhibition of Clostridioides difficile; also recorded: universally anti-microbial against C. difficile”. Moreover, in the experiment on C. difficile isolates (in vitro, media plus compound, culture optical density (FIG. 4)), the “killing / growth inhibition of diverse C. difficile isolates” value is “kills many diverse C. difficile isolates; also recorded: showed growth inhibition of C. difficile”.
